Laboratory results: patent US20030236218A1, “Aryl phosphate derivatives of d4T with selective activity against adenovirus and HIV” (priority 2002, published 2003)
≈ marks a conversion by molar mass, not a printed value. Marks after values point to notes of the source that are not given here.

Legend:
[1] = system: adenovirus strain Type 5, strain adenoid 75; test: Adenovirus plaque formation assay in skin fibroblast cell line SF; assay type: cell-based, human adenovirus; conditions: Adenovirus Type 5, 7 days, ± s.e., read-out: IC50, ADV-induced plaque formation
Text: Virus stocks. The HIV-1 strain used in this study was HTLV-IIIB (Uckun et al., 1998 Antimicro. Agents and Chemother., 42:383-388). The non-HIV viruses included in the present study were the gancyclovir-sensitive cytomegalovirus (CMV) strain AD169 (ATCC VR-538); acyclovir-sensitive herpes simplex virus (HSV) Type I strain HF (ATCC VR-260); acyclovir-sensitive HSV Type II strain G (ATCC VR-734); adenovirus strain Type 5, strain adenoid 75 (ATCC VR-5); enterovirus strain, ECHO 30, strain Bastianni (ATCC VR-322); and respiratory syncytial virus (RSV), strain Long (ATCC VR-26).
Plaque formation assays. Plaque assays were used to examine the activity of the compounds against non-HIV viruses. The skin fibroblast cell line SF (ATCC CRL-2097) was used as a target for AD169, Adenovirus Type 5. […] cell line (ATCC CCL-81) was used as a target for HSV HF and G. The HEP-2 cell line (ATCC CCL-23) was used as a target for the RSV strain Long. These cell lines were cultured at 1×10^5 cells/well in 24-well (all but ECHO 30-infected SF) or 6-well (ECHO 30-infected SF) tissue culture plates with 0.9% methylcellulose or 0.4% SeaPlaque agarose semisolid support. Minimum Essential Medium (MEM) with Earle's salts (Gibco), L-glutamine, non-essential amino acids, 2% heat-inactivated fetal bovine serum, 1% penicillin/streptomycin, and 0.05% gentamicin served as the culture medium. The incubation times were 3 days for HF, G, ECHO 30, and Long; and 7 days for AD169 and Adenovirus Type 5. Plaque counting was performed with a 20X dissecting microscope for AD169, Type 5, ECHO 30, and RSV Long, and with a light box for HF and G. The fixative agent was crystal violet for all viruses, except for the CMV strain AD169 for which methylene blue was used. Percent inhibition of plaque formation was calculated by comparing the plaque numbers from the test substance-treated infected cells with the plaque numbers from untreated infected cells (i.e., virus controls). The IC50 values were determined using the Statview statistics program (SAS Institute, Inc., Cary, N.C.).
Statistical analysis. Each drug was tested at 6-7 different concentrations ranging from 0.0001 μM to 100 μM. Each assay was set up in triplicate wells and repeated 1-3 times. An IC50 value was calculated from each set of triplicate wells using nonlinear regression modeling of the exponential form of the linearized equation (Statview, SAS Institute, Inc., Cary, N.C.). […] The IC50 values obtained were correlated to the log transformed hydrolysis rate constants by fitting a linear model (JMP Software, SAS Institute Inc., Cary, N.C.). P-values less than 0.05 were deemed significant.
The skin fibroblast cell line SF (ATCC CRL-2097) was used as a target for AD169, Adenovirus Type 5, and ECHO 30; the VERO cell line (ATCC CCL-81) was used as a target for HF and G; and the HEP-2 cell line (ATCC CCL-23) was used as target for the RSV strain Long. Results are expressed as the average IC50 values in μM. Stavudine (STV) was included as a control.

Solubility = assay type: physicochemical
[2] = Hydrolysis rate in alkali conditions; assay type: physicochemical
Method: Statistical analysis. Each drug was tested at 6-7 different concentrations ranging from 0.0001 μM to 100 μM. Each assay was set up in triplicate wells and repeated 1-3 times. An IC50 value was calculated from each set of triplicate wells using nonlinear regression modeling of the exponential form of the linearized equation (Statview, SAS Institute, Inc., Cary, N.C.). Hydrolysis rates were determined by fitting single exponential decay equations to the disappearance of the compound in alkali conditions (all R^2 values greater than 0.85). The IC50 values obtained were correlated to the log transformed hydrolysis rate constants by fitting a linear model (JMP Software, SAS Institute Inc., Cary, N.C.). P-values less than 0.05 were deemed significant.

[3] = Octanol/water partition coefficient, shake flask method; assay type: physicochemical; conditions: 4 hours at room temperature
Method: HPLC purification was achieved using a reverse-phase Lichrospher column (250×4 mm, Hewlett-Packard, RP-18, Cat. #79925) and an isocratic flow (1 ml/minute) consisting of water (70%) and acetonitrile (30%). Melting points were determined using a Melt John's apparatus and are uncorrected. Column chromatography was performed using silica gel obtained from Baker Company. The octanol/water partition coefficient was determined by the shake flask method. The phosphoramidate analogs were added to 2 ml of water and 2 ml of octanol in a glass vial. The mixture was shaken for 4 hours at room temperature. The two phases were carefully separated and filtered through a Millipore filter and analyzed by HPLC. The partition coefficient was calculated using the ratio of the area under the curve for octanol and water, respectively.

[4] = Pharmacokinetic studies in mice, intravenous administration; assay type: in vivo, Balb/c mice; conditions: plasma analyte = label, after i.v. 100 mg/kg compound 113
Method: Female Balb/c mice (6-8 weeks old) from Taconic (Germantown, N.Y.) were housed in a controlled environment (12-hours of light/12-hours of dark, 22±1° C., 60±10% relative humidity), which is fully accredited by the USDA. All rodents were housed in microisolator cages (Lab Products, Inc., NJ) containing autoclaved bedding. The mice were allowed free access to autoclaved pellet food and tap water throughout the study.
Blood samples (˜500 μL) were obtained from the ocular venous plexus by retro-orbital venipuncture at 0, 2, 5, 10, 15, 30, 45, 60, 120, 240 and 360 minutes after intravenous injection.
All collected blood samples were heparinized and centrifuged at 7000×g for 5 minutes to separate the plasma fraction from the whole blood. The plasma samples were then processed immediately using the extraction procedure described above.
Pharmacokinetic modeling and parameter calculations were carried out using the WinNonlin Professional Version 3.0 (Pharsight, Inc., Mountain, Calif.) pharmacokinetics software (Chen et al., Pharm. Res., 16, 1003 (1999); Chen et al., Pharm. Res., 16, 117 (1999); Chen et al., J. Clin. Pharmacol., 39, 1248 (1999); Uckun et al., Clin. Cancer Res., 5, 2954 (1999); and Uckun et al., J. Pharmacol. Exp. Ther., 291, 1301 (1999)). An appropriate model was chosen on the basis of the lowest sum of weighted squared residuals, the lowest Schwartz Criterion (SC), the lowest Akaike's Information Criterion (AIC) value, the lowest standard errors of the fitted parameters, and the dispersion of the residuals. The elimination half-life was estimated by linear regression analysis of the terminal phase of the plasma concentration-time profile. The area under the concentration-time curve (AUC) was calculated according to the linear trapezoidal rule between the first sampling time (0 hours) and the last sampling time plus C/k, where C is the concentration of the last sampling and k is the elimination rate constant. The systemic clearance (CL) was determined by dividing the dose by the AUC. The metabolic clearance of the parent drug, the formation clearance of the metabolite, the clearance elimination of the metabolite, and the distribution clearance of the metabolite were estimated by simultaneous fitting of the concentration of parent drug and metabolites as a function of time curve to pharmacokinetic models (see FIGS. 7A & 8A) specified as a system of differential equations (Gabrielsson & Weiner, Phamacokinetic/Phamacodynamic Data Analysis: Concepts and Applications, Swedish Pharmaceutical Press (1997)).

[5] = estimate from composite curve of pooled data

| SMILES | IC50 [1] [nM] | Solubility (Solubility) [µg/mL] | Hydrolysis Rate [2] [min⁻¹] | Oct/Water (log P) [3] | Vss [4, 5] [L/kg] | Vss ([4]; mean ± S.E.M) |
| --- | --- | --- | --- | --- | --- | --- |
| COC(=O)C(C)NP(=O)(OCC1C=CC(n2cc(C)c(=O)[nH]c2=O)O1)Oc1ccc(Br)cc1Cl (stereo not shown) [Compound 603, 5′-[4-Bromo-2-chlorophenylmethoxyalaninyl phosphate]-2′, 3′-didehydro-3′-deoxy thymidine] | 80 ± 10 | 1800 | 0.1500 | 1.81 | – | – |
| COC(=O)[C@H](C)NP(=O)(OCC1C=CC(n2cc(C)c(=O)[nH]c2=O)O1)Oc1ccc(F)cc1 (stereo partly shown) [Compound 604, 5′-[4-Flurophenylmethoxyalaninyl phosphate]-2′, 3′-didehydro-3′-deoxy thymidine] | 100 ± 40 | 7500 | 0.0117 | 0.54 | – | – |
| COC(=O)[C@H](C)NP(=O)(OC[C@@H]1C=C[C@H](n2cc(C)c(=O)[nH]c2=O)O1)Oc1ccc(Br)cc1 (stereo partly shown) | – | – | – | – | 0.8521 | (1005.3 ± 134.0) ml/kg |
| COC(=O)[C@H](C)NP(=O)(OCC1C=CC(n2cc(C)c(=O)[nH]c2=O)O1)Oc1cccc(N(C)C)c1 (stereo partly shown) [Compound 599, 5′-[3-Dimethylaminophenyl methoxylaninylphosphate]-2′, 3′-didehydro-3′-deoxy thymidine] | 230 ± 20 | 18000 (≈ 35.4 mM) | 0.0058 | 0.76 | – | – |
| COC(=O)C(C)NP(=O)(OCC1C=CC(n2cc(C)c(=O)[nH]c2=O)O1)Oc1cccc(Br)c1 (stereo not shown) [Compound 602, 5′-[3-Bromophenylmethoxyalaninyl phosphate]-2′, 3′-didehydro-3′-deoxy thymidine] | 235 ± 145 | – | 0.0338 | – | – | – |
| COC(=O)C(C)NP(=O)(OCC1C=CC(n2cc(C)c(=O)[nH]c2=O)O1)Oc1ccccc1Cl (stereo not shown) [Compound 606, 5′-[2-Chlorophenylmethoxyalaninyl phosphate]-2′, 3′-didehydro-3′-deoxy thymidine] | 28.5 ± 12 | 7300 | 0.0370 | 0.84 | – | – |
| COC(=O)[C@H](C)NP(=O)(OCC1C=CC(n2cc(C)c(=O)[nH]c2=O)O1)Oc1ccccc1 (stereo partly shown) [Compound 607, 5′-[Phenyl methoxylaninylphosphate]-2′, 3′-didehydro-3′-deoxy thymidine] | 57.5 ± 23 | 44700 (≈ 96 mM) | 0.0082 | 0.38 | – | – |
| COC(=O)C(C)NP(=O)(OCC1C=CC(n2cc(C)c(=O)[nH]c2=O)O1)Oc1c(OC)cccc1OC (stereo not shown) [Compound 600, 5′-[2,6-Dimethoxyphenylmethoxyalaninyl phosphate]-2′, 3′-didehydro-3′-deoxy thymidine] | 290 ± 120 | 43600 | 0.0029 | 0.40 | – | – |
| COC(=O)[C@H](C)NP(=O)(OCC1C=CC(n2cc(C)c(=O)[nH]c2=O)O1)Oc1ccc(Br)cc1 (stereo partly shown) | – | – | – | – | 0.7311 | (791.8 ± 113.1) ml/kg |
| COC(=O)C(C)NP(=O)(OCC1C=CC(n2cc(C)c(=O)[nH]c2=O)O1)Oc1ccccc1Br (stereo not shown) [Compound 605, 5′-[2-Bromophenylmethoxyalaninyl phosphate]-2′, 3′-didehydro-3′-deoxy thymidine] | 38.5 ± 22 | 4200 | 0.0336 | 0.95 | – | – |
| COC(=O)C(C)NP(=O)(OCC1C=CC(n2cc(C)c(=O)[nH]c2=O)O1)Oc1cc(Cl)ccc1Cl (stereo not shown) [Compound 608, 5′-[2,5-Dichlorophenylmethoxyalaninyl phosphate]-2′, 3′-didehydro-3′-deoxy thymidine] | 33 ± 17 | 3700 | 0.1840 | 1.41 | – | – |
| COC(=O)[C@H](C)NP(=O)(OCC1C=CC(n2cc(C)c(=O)[nH]c2=O)O1)Oc1ccc(OC)cc1 (stereo partly shown) [Compound 598, 5′-[4-Methoxyphenyl methoxylaninylphosphate]-2′, 3′-didehydro-3′-deoxy thymidine] | 555 ± 115 | 11900 (≈ 24 mM) | 0.0102 | 0.39 | – | – |
| COC(=O)[C@H](C)NP(=O)(OCC1C=CC(n2cc(C)c(=O)[nH]c2=O)O1)Oc1ccc(C#N)cc1 (stereo partly shown) [Compound 601, 5′-[4-Cyanophenylmethoxyalaninyl phosphate]-2′, 3′-didehydro-3′-deoxy thymidine] | 575 ± 5 | 4000 | 0.1199 | 0.05* | – | – |
